This passage reports IC50, EC50 and AC50 results from ChEMBL document CHEMBL1201862, “PubChem BioAssay data set” (2004).

SMILES strings stand for the structures. Calls of active or inactive are those of the source.

The IC50 is the midpoint of a concentration-inhibition curve. For orientation: EC50 means the concentration giving half of the maximal effect. What is called AC50 is the concentration at which the activity in the assay is half-maximal.

Assay [1] addresses T1, Mannose-6-phosphate isomerase (Homo sapiens, UniProt P34949).
T1 sequence (P34949 whole entry): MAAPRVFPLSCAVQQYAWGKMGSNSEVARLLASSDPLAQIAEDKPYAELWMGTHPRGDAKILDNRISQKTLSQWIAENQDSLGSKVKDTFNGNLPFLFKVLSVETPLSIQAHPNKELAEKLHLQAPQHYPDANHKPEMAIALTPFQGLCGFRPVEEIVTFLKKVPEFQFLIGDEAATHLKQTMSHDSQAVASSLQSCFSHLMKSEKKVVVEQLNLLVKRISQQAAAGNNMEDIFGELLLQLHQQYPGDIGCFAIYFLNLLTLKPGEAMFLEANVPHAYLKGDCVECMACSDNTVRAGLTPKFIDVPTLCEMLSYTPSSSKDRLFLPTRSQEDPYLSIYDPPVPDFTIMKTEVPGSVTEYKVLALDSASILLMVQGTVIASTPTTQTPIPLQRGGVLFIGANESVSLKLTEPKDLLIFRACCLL
The experiment in a line: MPI inhibition at elevated mannose 6-phosphate – biochemical, fluorescence intensity, high mannose 6-phosphate, primary screen (AID 1220).

The subject of another assay is H4. The experiment in a line: Luminescence Cell-Based Dose Response HTS to Identify Activators of 5'UTR Stem-Loop Driven Prion Protein mRNA Translation in H4 Neuroglioblastoma Cells. [Related pubchem assays: 1829 (Project Summary), 1814 (Primary HTS)]. The following applies: Homo sapiens. It is filed as functional.
The nature of assay [2]: Luminescence Cell-Based Dose Response HTS to Identify Activators of Luciferase Translation or Activity in H4 […] Cells. [Related pubchem assays: 1829 (Project Summary), 1814 (Primary HTS)]. Type of assay: functional.
The target of assay [3] is E3 ubiquitin-protein ligase Mdm2 (Homo sapiens, UniProt Q00987). The experiment in a line: MDM2-luc reporter signal enhancers, multi-concentration potency testing, MDM2 ubiquitin-protein ligase inhibitor program, whole-cell format, luminescence detection, 384-well microplate (AID 1394).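 Note: MDM2 E3 inhibitors raise luminescence so EC50 is for signal enhancement.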 Type of assay: functional.
The target of assay [4] is Heat shock protein HSP 90-alpha (Homo sapiens, UniProt P07900). The experiment in a line: Luminescence-based dose response biochemical high throughput screening assay for inhibitors of the Heat Shock Protein 90 (HSP90). [Related pubchem assays: 1831 (Summary AID.), 1846 (Confirmation screen.), 1789 (Primary screen.)].
The nature of assay [5]: P. falciparum Dd2 growth inhibitors, dose response, SYBR Green, cherry-picked samples (AID 1159567). Type of assay: functional, cell-based.
Assay [6] is described as follows: toxicity to human hepatoma HepG2 cells – cell-based, cherry-picked samples, cytotoxicity control, dose response (AID 1159577). Type of assay: functional.
A short description of assay [7]: growth inhibition of PfATP4-mutant resistant parasites – NITD609-resistant line, SYBR Green, dry powder, dose response (AID 1159571).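 Note: parasites synchronized at ring stage by sorbitol before testing.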 It is filed as functional, cell-based.
Assay [8] in a line: Dd2 malaria parasite growth inhibition potency – SYBR Green, dry powder samples, dose response (AID 1159566).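 Note: potency for growth inhibition with lower SYBR green DNA signal.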 It is filed as functional, cell-based.
Assay [9] is described as follows: growth inhibition of yeast DHODH-expressing 3D7 parasites – SYBR Green, dry powder samples, dose response (AID 1159570).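 Note: parasite growth measured after 72 hours of compound exposure.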 Type of assay: functional, cell-based.
Assay [10] can be described thus: toxicity to human HepG2 hepatoma cells – cell-based, plate reader, dry powder samples, cytotoxicity control, dose response (AID 1159569).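 Note: inhibitor potency with signal falling toward the positive control level.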 Type of assay: functional.

Chain of E3 ubiquitin-protein ligase Mdm2 (Q00987 whole entry): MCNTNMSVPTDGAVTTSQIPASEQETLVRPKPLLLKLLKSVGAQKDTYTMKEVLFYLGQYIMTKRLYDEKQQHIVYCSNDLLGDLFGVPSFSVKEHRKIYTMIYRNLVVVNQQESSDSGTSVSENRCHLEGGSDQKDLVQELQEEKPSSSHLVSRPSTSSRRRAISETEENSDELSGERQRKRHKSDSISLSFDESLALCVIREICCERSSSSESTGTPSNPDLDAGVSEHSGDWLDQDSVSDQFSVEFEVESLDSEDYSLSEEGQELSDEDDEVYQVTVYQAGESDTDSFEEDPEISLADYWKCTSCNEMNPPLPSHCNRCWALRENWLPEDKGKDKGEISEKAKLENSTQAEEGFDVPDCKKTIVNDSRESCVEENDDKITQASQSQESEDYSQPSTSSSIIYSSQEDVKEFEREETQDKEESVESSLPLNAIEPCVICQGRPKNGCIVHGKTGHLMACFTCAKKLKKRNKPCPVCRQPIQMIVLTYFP

As to `Cc1cccc(N2C(=O)/C(=C/N3CCN(C(=O)c4ccco4)CC3)C(=O)NC2=S)c1`, the IC50 in assay [1] is > 50 µM (not active).

Regarding `Cc1cccc(Nc2nnc(SCC3CCCCO3)s2)c1` (centres undefined), the EC50 in the assay with H4 was 21.8 µM (active); in assay [2], 27.2 µM (active); in assay [3], 11.2 µM (not active).

Turning to `COc1ccc(N(/N=C2\Sc3ccccc3C2=O)C(C)=O)cc1`, in [4], the IC50 was 1.96 µM (active).

In the case of `CO[C@@H]1CN(C)C(=O)c2cc(NC(=O)c3nc4ccccc4s3)ccc2OC[C@H](C)N(Cc2cccnc2)C[C@@H]1C`, the AC50 in assay [5] is 5.35 µM (active); in [6], 33.4 µM (active).

`COc1ccc(C#Cc2ccc([C@H]3[C@@H](CO)N4CCCCN(C(=O)Nc5ccccc5F)C[C@H]34)cc2)cc1`: the AC50 in [5] was 1.02 µM (active); in assay [6] it was 7 µM (active).

As to `O=C(C1CCCC1)N1CC[C@@H]2[C@H]1c1cc(-c3cccc(F)c3)ccc1N[C@@H]2CO`, the AC50 in [7] was 0.577 µM (active); in [5], 0.996 µM (active); in assay [8], 0.641 µM (active); in [9], 1.03 µM (active); in assay [10], 19.9 µM (active).

`COc1ccccc1C#Cc1ccc2c(c1)[C@H]1NCC[C@H]1[C@@H](CO)N2`: the AC50 was 3.13 µM (active) in [7]; 2.45 µM (active) in assay [5]; 2.02 µM (active) in assay [8]; 3.54 µM (active) in assay [9]; 38.1 µM (active) in assay [10].
